Assay: Aerosol performances by Next Generation Impactor (NGI)
Type: physicochemical
Experimental: The evaluation of the aerosol performances was carried out using the Next Generation Impactor (NGI) according to the conditions reported in the European Pharmacopeia 8.5th Ed 2015, par 2.9.18, pages 309-320. After aerosolization of 3 doses from the inhaler device, the NGI apparatus was disassembled and the amounts of drug deposited in the stages were recovered by washing with a 50:50 v/v water:acetonitrile mixture and then quantified by High-Performance Liquid Chromatography (HPLC). The following parameters, were calculated: i) the delivered dose which is the amount of drug delivered from the device recovered in the all parts of impactor; ii) the fine particle mass (FPM) which is the amount of delivered dose having a particle size equal to or lower than 5.0 micron; iii) the fine particle fraction (FPF) which is the ratio between the fine particle mass and the delivered dose; iv) the MMAD. The evaluation of the aerosol performances was performed as reported in Example 1. […]

[1] = Example 4 formulation, Multidose DPI
[2] = Example 4 formulation, Single Dose DPI (RS01)
[3] = Example 5 formulation, 1 mg single dose, single dose DPI RS01
[4] = Example 5 formulation, 4 mg single dose, single dose DPI RS01

Structure (SMILES) | Delivered Dose (Example 1 formulation (3000 μg BDP per 10 mg shot), multidose DPI of WO 2016/000983, NGI, 3 doses) [mg] | MMAD (Example 1 formulation, multidose DPI) [μm] | Fine Particle Mass (Example 1 formulation, multidose DPI, particle size equal to or lower than 5.0 micron) [mg] | Fine Particle Fraction (Example 1 formulation, multidose DPI, ratio fine particle mass/delivered dose) [%] | Fine Particle Fraction [1] [%] | Fine Particle Mass [1] [mg] | MMAD [1] [μm] | Delivered Dose (Example 4 formulation, Multidose DPI (WO 2016/000983)) [mg] | Fine Particle Fraction [2] [%] | Fine Particle Mass [2] [mg] | MMAD [2] [μm] | Delivered Dose (Example 4 formulation, Single Dose DPI (RS01 of Plastiape)) [mg] | Delivered Dose [3] [mg] | Fine Particle Fraction [3] [%] | Fine Particle Mass [3] [mg] | MMAD [3] [μm] | Delivered Dose [4] [mg] | Fine Particle Fraction [4] [%] | Fine Particle Mass [4] [mg] | MMAD [4] [μm]
CCC(=O)OCC(=O)[C@@]1(OC(=O)CC)[C@@H](C)C[C@H]2[C@@H]3CCC4=CC(=O)C=C[C@]4(C)[C@@]3(Cl)[C@@H](O)C[C@@]21C [BDP, beclometasone dipropionate, reference compound] | 2.16 | 2.26 | 0.87 | 38.5 | – | – | – | – | – | – | – | – | – | – | – | – | – | – | – | –
COC(=O)C1=C(C)N(c2cccc(C(F)(F)F)c2)c2n[nH]c(=O)n2[C@@H]1c1ccc(C#N)cc1CC[N+](C)(C)C [CHF 6333] | – | – | – | – | 41.7 | 0.8 | 2.09 | 1.92 | 77.1 | 1.18 | 1.88 | 1.53 | 0.81 | 71.6 | 0.58 | 2.15 | 2.88 | 73.9 | 2.13 | 1.85
